According to patent EP0551200A1, “Protein phosphatase inhibitors for use in therapy” (priority 1992, dated 1993):

Legend:
Egr-1 protein = format: cell-based; details: 2 h treatment, data not shown
Procedure: Quiescent human fibroblasts were stimulated with MEM containing 0.5 µM okadaic acid in the presence or absence of cycloheximide (10 µg/ml) for the times indicated in Fig. 11. […] Treatment of cells with cycloheximide enhanced the induction of Egr-1 mRNA by okadaic acid at 1.5 and 3 h (Fig. 11). Similarly puromycin, like cycloheximide, also "superinduces" the induction of the Egr-1 mRNA by okadaic acid (data not shown). […] However, in view that protein phosphatase 1 (PP1) and protein phosphatase 2A (PP2A) regulate enzymes associated with cellular protein synthesis (Cohen, Annu. Rev. Biochem. 58, 453-508, 1989) the effect of okadaic acid on protein synthesis in mouse and human fibroblasts was also measured. […] By then the Egr-1 mRNA message was already induced. A corollary to this is a comparison of the amount of ³⁵S-methionine labelled Egr-1 protein immunoprecipitated by R5232 antibodies from protein phosphatase inhibitor-treated and control cells. […] Thus, the induction of the Egr-1 gene by phosphatase inhibitors is unlikely to be mediated by their late inhibitory effects on cellular protein synthesis.

EGFR = assay: Phosphorylation of EGF receptor, immunoprecipitation from 32P-labeled fibroblasts; format: cell-based, human; details: 250 nM, 15 min
Procedure: Phosphorylation of EGFR by TNF, IL-1, EGF, PDGF (indicated as PGF) and okadaic acid (OA). ³²P-Labeled cultures of fibroblast cells were treated with TNF (100 units/ml), IL-1 (100 units/ml), EGF (50 ng/ml), PDGF (32 ng/ml) or OA (250 nM) for 15 min. Control is indicated by 0. The EGFR was immunoprecipitated with anti-EGFR antibody (Oncogene Science, Manhasset, N.Y., US). The proteins were subjected to 7.5% SDS-PAGE and autoradiography.
IL-1, TNF, or Okadaic Acid Treatment Stimulate Phosphorylation of the EGF Receptor - One feature of TNF and IL-1 action is the transmodulation of the EGFR via phosphorylation. Okadaic acid was added to human fibroblasts to see if it can also mimic this effect of TNF and IL-1. ³²P-Labeled human fibroblasts were treated with ligand (TNF, IL-1, EGF, PDGF, or okadaic acid) for 15 min and extracted for analysis. The extracts were immunoprecipitated with anti-EGFR antibodies. The immunoprecipitated EGFR derived from variously treated fibroblasts was analyzed by SDS-PAGE and autoradiography.

Egr-1 mRNA = assay: cells; format: cell-based, mouse
Procedure: 10 µg of RNA was applied to each lane and subjected to Northern blot analysis using an Egr-1 specific cDNA probe [1.6 kb Bgl II fragment (Sukhatme et al, Cell 53, 37-48, 1988)]. The same blots were rehybridized with actin or GADPH cDNA for normalizing the amount of RNA loaded. The blots were dried and autoradiographed. • (A). Time course of okadaic acid-induced Egr-1 and c-jun messages in primary human fibroblasts. Quiescent human fibroblasts were induced with 1 µM of okadaic acid for the time periods indicated. […] Time course of okadaic acid-induced Egr-1 message in Balb/c 3T3 cells. Quiescent Balb/c 3T3 cells were induced with okadaic acid (0.5µM) for the times indicated. • (C). Concentration dependent induction of Egr-1 message by okadaic acid in Balb/c 3T3 cells. Quiescent Balb/c 3T3 cells were induced with the indicated concentrations of okadaic acid for 1 h. As controls, different concentrations of DMSO were included. These corresponded to the amounts present in 0.25 µM okadaic acid (0.025% dimethyl sulphoxide (DMSO)) 0.5 µM okadaic acid (0.05% DMSO) and 1 µM okadaic acid (0.1%). • (D). Concentration dependent and time course induction of Egr-1 message by calyculin A. Quiescent Balb/c 3T3 cells were induced with different concentrations of calyculin A for 1 h. Northern analysis of this dose-dependent induction by calyculin A is shown on the left panel of the figure. […] Northern analysis of this time course induction by calyculin A is shown in the right panel of the figure. The same blot was rehybridized with pCMV-fos (Curran et al, Oncogene 2, 79-84, 1987) and pCMV-jun (Rauscher et al, 1988) shown in the middle panel. The blot was dried and autoradiographed.
Quiescent primary human fibroblasts were incubated with okadaic acid (OA) or TPA for 1 or 3 h. The concentrations of OA and TPA were 0.5 µM and 120 ng/ml, respectively. The concentration of 1-(5-isoquinolinylsulfonyl)-2-methylpiperazine dihydrochloride (H7) and N-(2-guanidinoethyl)-5-isoquinolinesulphonamide dihydrochloride (HA1004) used was 25 µM. The cells were pre-treated for 15 min with H7 or HA1004 before they were induced by OA or TPA for 1 or 3 h. Cells were harvested, RNA was isolated and subjected to Northern blot analysis. The blot was probed with Egr-1 or GADPH cDNA. • (B). As a positive control, primary human fibroblasts were treated with TPA (30 ng/ml) for 1 h (1st lane). The fibroblasts were also pre-treated with H7 (25 µM) or HA1004 (25 µM) for 15 min before treatment with TPA for 1 h (2nd and 3rd lanes respectively). […] The blot was probed with Egr-1 or actin cDNA. • (C). Quiescent Balb/c 3T3 cells were incubated with OA, TPA or dBt-cAMP for 1 h or pre-treated with H7 (25 µM) or HA1004 (25 µM) for 15 min and then incubated with each of the agonists for 1 h. Cells were harvested, RNA was isolated and subjected to Northern blot analysis. The concentration of each agonist used was as follows: lane a: 0.5 µM of OA, lane b: 100 ng/ml of TPA, lane c: 1 mM of dBt-cAMP, lane d: H7 plus OA (0.5 µM), lane e: H7 plus TPA (100 ng/ml), lane f: H7 plus dBt-cAMP (1 mM), lane g: HA1004 plus OA (0.5 µM), lane h: HA1004 plus TPA (100 ng.ml), lane i: HA1004 plus dBt-cAMP (1mM). The blot was probed with Egr-1 or GADPH cDNA.
Cell Cultures and Reagents. Human diploid foreskin fibroblasts were a gift from Dr J Vilcek (New York University, New York). The cells were grown in MEM supplemented with 10% fetal bovine serum (Hyclone, Logan, UT, US), Mouse Balb/c 3T3 cells were purchased from the American Type Culture Collection and grown in Dulbecco's MEM (DMEM) supplemented with 10% fetal bovine serum. Okadaic acid, calyculin A, H7, and HA1004 were purchased from Biomol Research Laboratories (Plymouth Meeting, PA, US). TPA, puromycin and dBt-cAMP were purchased from Sigma (St Louis, MO, US) 1 mM stock solutions of okadaic acid or calyculin A were solubilized in DMSO. [³²P]orthophosphate and other radioactive chemicals were purchased from Du Pont-New England Nuclear (Boston, MA). […]

With `C=C1[C@@H](O)[C@@H]2O[C@]3(CC[C@H](/C=C/[C@@H](C)[C@@H]4CC(C)=C[C@@]5(O[C@H](C[C@@](C)(O)C(=O)O)CC[C@H]5O)O4)O3)CC[C@H]2O[C@@H]1[C@@H](O)C[C@H](C)[C@H]1O[C@@]2(CCCCO2)CC[C@H]1C` [okadaic acid] the “amount of 35S-methionine labeled Egr-1 protein relative to control cells” value (Egr-1 protein) was 4 to 5 fold, the “stimulation of phosphorylation of the EGFR (in words)” value (EGFR) was “to an even greater extent than does TNF, IL-1, EGF or PDGF” and the “time for which the Egr-1 mRNA level is maintained” value (Egr-1 mRNA; 0.5 µM) was “up to 7 h”. For the same compound, the “time of maximal induction of Egr-1 mRNA” value (Egr-1 mRNA; 0.5 µM) was “about 2 h”, the “time to induction of Egr-1 mRNA” value (Egr-1 mRNA; 0.5 µM) was ≤ 1 h and the “concentration inducing an equivalent fold increase in Egr-1 mRNA” value (Egr-1 mRNA; 1 h, calyculin A compared with okadaic acid) was 1000 nM. For the same compound, the fold induction at 0.5 µM (Egr-1 mRNA; Mus musculus, BALB/c3T3, 0.5 µM, maintained level, read-out: Egr-1 mRNA level over control) was 30 to 40.
